Data as given in US10222370B2, “Screening assay for choice of prebiotic to prevent/treat gastrointestinal and systemic diseases” (Rush University Medical Center, priority 2014, dated 2019).
“Also recorded” adds a separate entry of the source.

How the values were obtained:
Format in all cases: cell-based, human
[1] = tested on: T84 monolayers co-cultured with CD3/28-activated PBMC; experiment: T84/PBMC co-culture, barrier integrity by transepithelial electrical resistance (TER); settings: for TER of T84 monolayers: apical exposure, 24 h and 48 h, vs medium control; for PBMC-induced disruption of intestinal epithelial barrier integrity (injurious effects of activated PBMC): PBMC from food allergy patients, agonist on apical side of T84 cells, FIG. 3
Protocol: (§1) The T84 cells are grown in DMEM/F-12 (1:1) supplemented with GlutaMAX®, 10% fetal bovine serum and […] penicillin/streptomycin. (T84 cells (human colorectal carcinoma cell line, ATCC® CCL-248™, Manassas, Va., USA). T84 cells were seeded in 12-well transwell insert filters (Coming Inc., NY, USA) and cultured in T84 cell medium for 3-4 weeks till co-culture with PBMC. Transepithelial electrical resistance (TER) was measured during culture, which generally increases to >1500 Ω×cm^2 and becomes stable after 3-4 weeks of culture. When TER was ≥2000 Ω×cm^2, T84 monolayers 14 were co-cultured with 1.5×10^6 PBMC 16 in the basolateral chamber.
(§2) The PBMC 16 for use in the co-cultures are isolated from 20 mL fresh blood from healthy controls (n=6) and subjects with food allergy (n=8) (Table 1). The average age of healthy controls was 36 (range 24-54) vs. 51 (range 26-74) for food allergic subjects (P>0.05). PBMC were isolated by density gradient centrifugation using lymphocyte separation medium according to manufacturer's protocol (Cellgro, Mediatec, Inc., Manassas, Va., USA). PBMC were collected in RPMI1640 supplemented with L-glutamine (Gibco), 2.5% fetal bovine serum, 1% penicillin/streptomycin and 1% sodium pyruvate (Sigma, St. Louis, Mo., USA) (PBMC medium) at 1×10^6 cell/mL.
(§3) T84/PBMC co-cultures were maintained in PBMC medium. PBMC were stimulated using CD3 and CD28 antibodies (clone OKT3 and CD28.2, 0.2 μg/mL; eBioscience, San Diego, Calif., USA) and simultaneously IEC were stimulated apically with Pam3CSK4, LPS or type C CpG oligonucleotide M362 (Invivogen, San Diego, Calif., USA) as previously described. Cultures were maintained at 37° C./5% CO2 for indicated time points.
The barrier integrity of T84 monolayers was assessed by measuring the TER and paracellular permeability to 4 kDa FITC-dextran. In short, TER was measured using a dual electrode system designed for cell culture insert analysis (EVOM; World Precision Instruments, Sarasota, Fla.) prior to co-culture and at indicated time points during co-culture. Data is reported as percentage of the initial TER value measured before co-culture. For assessment of permeability, T84 monolayers were separated from PBMC and cultured in PBMC medium for 1 h. The monolayers were then apically exposed to 1 mg/mL 4 kDa FITC-dextran (Sigma) and basolateral supernatants were collected after 60 min. FITC-dextran was measured at excitation wavelength 485 nm and emission wavelength 520 nm. The 4 kDa FITC-dextran flux was expressed as pmol/(h×cm^2).
In some experiments, PBMC are stimulated using antibodies against CD3 and CD28 and T84 cell monolayers were simultaneously exposed to synthetic TLR ligands or fermentation product 12 (co-culture of stool samples without or with different prebiotics). SCFA content (acetate, propionate and butyrate) in the fermentation products (“Fermenta”) 12 was analyzed by HPLC. TER was measured at t=0 h, t=4 h, t=18 h and t=24 h to monitor changes in the barrier integrity of the T84 monolayers. Non-limiting example of prebiotics include commercially available inulin and fructose oligosaccharides (FOS) that promote production of Butyrate by intestinal bacteria, galactose oligosaccharides (GOS) that promote growth of bifidobacteria in the intestine or prebiotics like resistant starch, corn arbionoxylan that promotes propionate. Other prebiotics may also be used.

PBMC = experiment: Cytokine production by CD3/28-activated PBMC in absence of T84 cells (ELISA); settings: for IFN-γ / IL-6 / IL-8 / IL-10 / IL-13 / TNF-α / IFN-γ/IL-13 ratio: PBMC in absence of T84 cells, 24 h; for IFN-γ / IL-6 / IL-8 / IL-10 / IL-13 / TNF-α: mean ± SEM; for IL-10/IL-13 ratio: absence of T84 cells
Protocol: as §2, §3
(§4) Cytokine levels were measured by ELISA. IL-6, IL-8, IL-10, IL-13, IFN-γ and TNF-α were measured using the Ready-Set-Go!® ELISA kit from eBioscience according to manufacturer's protocol (eBioscience, Inc., San Diego, Calif., USA).
(§5) To evaluate whether epithelial TLR ligation modulates cytokine production by the PBMC, basolateral supernatants were collected 24 h after co-culture. Exposure of CD3/28-activated PBMC in the absence of IEC to TLR ligands served as a control to evaluate the contribution of IEC in modulating the cytokine production by PBMC. First we evaluated the production of IFN-γ and IL-13 as a reflection of a Th1 and Th2 type effector response (Table 3). No significant changes in the production of IFN-γ or IL-13 were observed, though IFN-γ production by the PBMC from food allergic subjects tended to be lower in T84/PBMC co-cultures (P=0.093). […] This was not observed when PBMC were stimulated with CpG DNA in absence of T84 cells (FIG. 7B).

[2] = tested on: T84 monolayers co-cultured with CD3/28-activated PBMC; experiment: T84/PBMC co-culture, paracellular permeability to 4 kDa FITC-dextran; settings: PBMC from food allergic subjects; 48 h co-culture; vs medium control
Protocol: as §1, §2
T84/PBMC co-cultures were maintained in PBMC medium. […]
The barrier integrity of T84 monolayers was assessed by measuring the TER and paracellular permeability to 4 kDa FITC-dextran. In short, TER was measured using a dual electrode system designed for cell culture insert analysis (EVOM; World Precision Instruments, Sarasota, Fla.) prior to co-culture and at indicated time points during co-culture. Data is reported as percentage of the initial TER value measured before co-culture. […] FITC-dextran was measured at excitation wavelength 485 nm and emission wavelength 520 nm. The 4 kDa FITC-dextran flux was expressed as pmol/(h×cm^2).

T84/PBMC co-cultures = experiment: Cytokine production in T84/PBMC co-cultures with apical TLR ligands (ELISA); settings: for IL-10/IL-13 ratio / IFN-γ/IL-13 ratio / IL-10/IFN-γ: T84/PBMC co-cultures; for IL-10/IL-13 ratio / IFN-γ/IL-13 ratio: vs medium; for IFN-γ/IL-13 ratio / IL-6 / IFN-γ / IL-8 / IL-10 / IL-13 / TNF-α: 24 h; for IL-10/IFN-γ: apical exposure; for IL-6 / IFN-γ / IL-8 / IL-10 / IL-13 / TNF-α: T84/PBMC, mean ± SEM
Protocol: as §1, §2, §3, §4, §5

[3] = PBMC from food allergic subjects

type C CpG oligonucleotide M362 [CpG DNA]
TER of T84 monolayers [1, 3]: prevented PBMC-induced barrier disruption; also recorded: increased | PBMC-induced disruption of intestinal epithelial barrier integrity (injurious effects of activated PBMC) ([1]; listed as TLR9 agonist): prevented | PBMC-induced disruption of intestinal epithelial barrier integrity (injurious effects of activated PBMC) ([1]; listed as TLR-9 agonist): significantly blunted | TER of T84 monolayers ([1]; PBMC from healthy controls): prevented PBMC-induced barrier disruption; also recorded: increased | IFN-γ (PBMC; FA): 3945 ± 1543 pg/mL | IL-6 (PBMC; FA): 5940 ± 2450 pg/mL | IL-8 (PBMC; FA): 25420 ± 6779 pg/mL | IL-10 (PBMC; FA): 477.3 ± 157.7 pg/mL | IL-13 (PBMC; FA): 39.9 ± 12.8 pg/mL | TNF-α (PBMC; FA): 1199 ± 437 pg/mL | IFN-γ (PBMC; HC): 2394 ± 966 pg/mL | IL-6 (PBMC; HC): 2564 ± 824 pg/mL | IL-8 (PBMC; HC): 19912 ± 2430 pg/mL | IL-10 (PBMC; HC): 391.9 ± 149.3 pg/mL | IL-13 (PBMC; HC): 19.5 ± 3.8 pg/mL | TNF-α (PBMC; HC): 1024 ± 213 pg/mL | IFN-γ/IL-13 ratio (PBMC; food allergic subjects): not observed | IFN-γ/IL-13 ratio (PBMC; healthy controls): not observed | IL-10/IL-13 ratio (PBMC; [3]): did not affect | IL-10/IL-13 ratio (PBMC; PBMC from healthy controls): enhanced | production of IL-6, IL8 and TNF-α (PBMC; direct stimulation of PBMC from food allergic subjects, in words): did not suppress | pro-inflammatory cytokine production (PBMC; direct stimulation of PBMC from healthy controls, in words): reduced | permeability of T84 monolayers to 4 kDa FITC-dextran [2]: reduced epithelial permeability | production of IL-6, IL-8 and TNF-α by PBMC (T84/PBMC co-cultures; T84/PBMC co-culture, PBMC from both healthy controls and food allergic subjects, in words): suppressed | IL-10/IL-13 ratio (T84/PBMC co-cultures; PBMC from food allergic patients): significantly increased | IFN-γ/IL-13 ratio (T84/PBMC co-cultures; food allergic subjects): enhanced; also recorded: increased | IL-10/IFN-γ (T84/PBMC co-cultures; food allergic subjects): 0.19±0.06 | IFN-γ/IL-13 ratio (T84/PBMC co-cultures; healthy controls): enhanced; also recorded: increased | IL-10/IFN-γ (T84/PBMC co-cultures; healthy controls): 0.12±0.06 | IL-10/IL-13 ratio (T84/PBMC co-cultures; healthy donor PBMC): tended to increase | IL-6 (T84/PBMC co-cultures; FA (food allergy) PBMC): 6400 ± 1671 pg/mL | IFN-γ (T84/PBMC co-cultures; FA PBMC): 7040 ± 2454 pg/mL | IL-8 (T84/PBMC co-cultures; FA PBMC): 15733 ± 4509 pg/mL | IL-10 (T84/PBMC co-cultures; FA PBMC): 834 ± 233.6 pg/mL | IL-13 (T84/PBMC co-cultures; FA PBMC): 35.9 ± 10.5 pg/mL | TNF-α (T84/PBMC co-cultures; FA PBMC): 2092 ± 493 pg/mL | IL-6 (T84/PBMC co-cultures; HC (healthy control) PBMC): 7291 ± 1376 pg/mL | IFN-γ (T84/PBMC co-cultures; HC PBMC): 10731 ± 3289 pg/mL | IL-8 (T84/PBMC co-cultures; HC PBMC): 20758 ± 5247 pg/mL | IL-10 (T84/PBMC co-cultures; HC PBMC): 652.8 ± 105.5 pg/mL | IL-13 (T84/PBMC co-cultures; HC PBMC): 27.5 ± 7.5 pg/mL | TNF-α (T84/PBMC co-cultures; HC PBMC): 2531 ± 552 pg/mL | Th1/Th2 balance of the effector immune response (T84/PBMC co-cultures; apical exposure of T84 monolayers, FIG. 4, listed as TLR9 agonist): shifts the balance of the effector immune response away from the allergy-associated Th2 response; also recorded: reversed the Th1/Th2 balance away from the allergic TH2 phenotype
